Test results: PMC9719519, “Non-classical ferroptosis inhibition by a small molecule targeting PHB2” (Nature Communications, 2022)

What was measured:
Test in all cases: biochemical
Parameters in all cases: Eurofins recombinant human kinase profiling, remaining kinase activity as % of control, 10 uM ATP
Conditions in all cases: ATP 10 uM; read-out: %Ctrl@10 μM
ALK(h) = ALK(h) (Homo sapiens, UniProt Q9UM73)
In short: (§1)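 Recombinant human kinases, 401 in total, screened using an outsourced kinase profiling assay.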

ARK5(h) = target: T1, ARK5(h) (Homo sapiens, UniProt O60285)
T1 construct: gene NUAK1
In short: as §1

ASK1(h) = target: T2, ASK1(h) (Homo sapiens, UniProt Q99683)
T2 construct: gene MAP3K5
In short: as §1

ATM(h) = ATM(h) (Homo sapiens, UniProt Q13315)
In short: as §1

CDK12/cyclinK(h) = CDK12/cyclinK(h) (Homo sapiens, UniProt Q9NYV4)
In short: as §1

CK1γ3(h) = target: T3, CK1γ3(h) (Homo sapiens, UniProt Q9Y6M4)
T3 construct: gene CSNK1G3
In short: as §1

CK2α1(h) = target: T4, CK2α1(h) (Homo sapiens, UniProt P68400)
T4 construct: gene CSNK2A1
In short: as §1

FGFR3(h) = FGFR3(h) (Homo sapiens, UniProt P22607)
In short: as §1

Fes(h) = Fes(h) (Homo sapiens, UniProt P07332)
In short: as §1

IKKα(h) = target: T5, IKKα(h) (Homo sapiens, UniProt O15111)
T5 construct: gene CHUK
In short: as §1

MAK(h) = MAK(h) (Homo sapiens, UniProt P20794)
In short: as §1

MAP4K3(h) = MAP4K3(h) (Homo sapiens, UniProt Q8IVH8)
In short: as §1

MAPK1(h) = target: T6, MAPK1(h) (Homo sapiens, UniProt P27361)
T6 construct: gene MAPK3
In short: as §1

MAPK2(h) = target: T7, MAPK2(h) (Homo sapiens, UniProt P28482)
T7 construct: gene MAPK1
In short: as §1

MOK(h) = MOK(h) (Homo sapiens, UniProt Q9UQ07)
In short: as §1

Mer(h) = target: T8, Mer(h) (Homo sapiens, UniProt Q12866)
T8 construct: gene MERTK
In short: as §1

NIM1(h) = target: T9, NIM1(h) (Homo sapiens, UniProt Q8IY84)
T9 construct: gene NIM1K
In short: as §1

PRAK(h) = target: T10, PRAK(h) (Homo sapiens, UniProt Q8IW41)
T10 construct: gene MAPKAPK5
In short: as §1

PhKγ1(h) = target: T11, PhKγ1(h) (Homo sapiens, UniProt Q16816)
T11 construct: gene PHKG1
In short: as §1

Pim-2(h) = target: T12, Pim-2(h) (Homo sapiens, UniProt Q9P1W9)
T12 construct: gene PIM2
In short: as §1

Ret (V804L)(h) = Ret (V804L)(h) (Homo sapiens, UniProt P07949, V804L)
In short: as §1

SNRK(h) = SNRK(h) (Homo sapiens, UniProt Q9NRH2)
In short: as §1

Txk(h) = Txk(h) (Homo sapiens, UniProt P42681)
In short: as §1

Chain of ALK(h) (Q9UM73 whole entry): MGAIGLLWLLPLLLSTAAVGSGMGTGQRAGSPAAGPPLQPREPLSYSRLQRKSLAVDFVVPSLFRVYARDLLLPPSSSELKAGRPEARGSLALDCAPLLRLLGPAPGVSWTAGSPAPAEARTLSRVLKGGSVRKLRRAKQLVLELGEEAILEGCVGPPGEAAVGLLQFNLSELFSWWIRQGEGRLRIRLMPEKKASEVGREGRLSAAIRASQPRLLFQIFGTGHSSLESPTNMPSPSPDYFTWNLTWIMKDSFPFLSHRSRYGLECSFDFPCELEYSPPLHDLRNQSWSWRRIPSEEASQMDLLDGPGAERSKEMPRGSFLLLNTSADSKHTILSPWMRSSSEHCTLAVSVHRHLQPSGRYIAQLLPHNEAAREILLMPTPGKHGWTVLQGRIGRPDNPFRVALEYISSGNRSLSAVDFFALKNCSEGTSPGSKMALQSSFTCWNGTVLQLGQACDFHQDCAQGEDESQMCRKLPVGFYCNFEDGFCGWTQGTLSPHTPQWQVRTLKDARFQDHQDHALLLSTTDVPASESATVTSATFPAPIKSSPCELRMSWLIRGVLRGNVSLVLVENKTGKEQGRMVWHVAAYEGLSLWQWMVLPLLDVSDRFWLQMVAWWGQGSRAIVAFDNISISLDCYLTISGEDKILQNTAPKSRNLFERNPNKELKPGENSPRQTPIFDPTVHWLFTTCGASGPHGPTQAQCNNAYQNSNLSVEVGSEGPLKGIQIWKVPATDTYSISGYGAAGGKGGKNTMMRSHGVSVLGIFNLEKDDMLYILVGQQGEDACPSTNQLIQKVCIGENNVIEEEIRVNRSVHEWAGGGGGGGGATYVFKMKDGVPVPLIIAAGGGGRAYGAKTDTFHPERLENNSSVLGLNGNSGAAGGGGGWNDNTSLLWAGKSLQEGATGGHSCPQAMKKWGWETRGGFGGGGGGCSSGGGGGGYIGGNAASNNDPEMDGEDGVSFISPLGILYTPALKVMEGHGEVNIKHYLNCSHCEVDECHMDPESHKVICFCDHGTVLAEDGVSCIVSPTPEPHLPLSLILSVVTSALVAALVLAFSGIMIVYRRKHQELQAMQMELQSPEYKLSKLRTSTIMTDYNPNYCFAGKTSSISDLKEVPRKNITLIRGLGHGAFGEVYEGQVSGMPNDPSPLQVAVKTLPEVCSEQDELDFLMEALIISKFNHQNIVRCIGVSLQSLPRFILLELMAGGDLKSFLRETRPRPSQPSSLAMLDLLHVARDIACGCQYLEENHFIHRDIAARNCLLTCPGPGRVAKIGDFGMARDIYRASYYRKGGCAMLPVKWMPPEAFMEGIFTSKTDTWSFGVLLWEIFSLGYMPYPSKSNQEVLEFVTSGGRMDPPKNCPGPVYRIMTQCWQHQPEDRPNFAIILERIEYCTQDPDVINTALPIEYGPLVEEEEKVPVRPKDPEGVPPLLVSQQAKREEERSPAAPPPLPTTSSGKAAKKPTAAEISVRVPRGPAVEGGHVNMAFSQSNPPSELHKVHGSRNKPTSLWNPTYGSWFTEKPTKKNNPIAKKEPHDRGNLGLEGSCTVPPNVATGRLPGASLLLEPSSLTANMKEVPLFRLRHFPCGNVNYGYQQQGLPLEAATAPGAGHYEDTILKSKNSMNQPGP
T11 sequence (Q16816 whole entry): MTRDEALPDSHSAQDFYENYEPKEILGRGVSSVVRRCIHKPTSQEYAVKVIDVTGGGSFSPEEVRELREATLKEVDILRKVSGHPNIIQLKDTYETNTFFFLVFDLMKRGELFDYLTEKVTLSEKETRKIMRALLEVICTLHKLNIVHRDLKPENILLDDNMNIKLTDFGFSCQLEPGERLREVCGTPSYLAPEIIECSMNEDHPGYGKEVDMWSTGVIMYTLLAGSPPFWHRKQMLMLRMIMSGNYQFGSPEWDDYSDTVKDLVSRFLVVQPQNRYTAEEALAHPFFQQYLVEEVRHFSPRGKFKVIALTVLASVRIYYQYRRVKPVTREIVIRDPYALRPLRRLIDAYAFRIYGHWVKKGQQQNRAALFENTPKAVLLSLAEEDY
T10 sequence (Q8IW41 whole entry): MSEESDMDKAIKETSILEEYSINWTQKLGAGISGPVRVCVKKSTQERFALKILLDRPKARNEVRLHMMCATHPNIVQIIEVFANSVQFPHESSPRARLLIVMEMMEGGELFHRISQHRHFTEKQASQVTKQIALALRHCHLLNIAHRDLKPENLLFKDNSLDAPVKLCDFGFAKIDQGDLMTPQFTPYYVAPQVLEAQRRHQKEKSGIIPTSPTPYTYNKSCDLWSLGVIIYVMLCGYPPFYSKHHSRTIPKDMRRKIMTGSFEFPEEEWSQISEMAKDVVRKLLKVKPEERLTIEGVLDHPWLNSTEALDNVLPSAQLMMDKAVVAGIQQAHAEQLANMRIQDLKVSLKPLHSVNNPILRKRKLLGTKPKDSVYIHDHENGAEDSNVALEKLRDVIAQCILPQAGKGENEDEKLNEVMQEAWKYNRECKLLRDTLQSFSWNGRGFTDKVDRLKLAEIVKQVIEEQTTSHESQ
Chain of CDK12/cyclinK(h) (Q9NYV4 whole entry): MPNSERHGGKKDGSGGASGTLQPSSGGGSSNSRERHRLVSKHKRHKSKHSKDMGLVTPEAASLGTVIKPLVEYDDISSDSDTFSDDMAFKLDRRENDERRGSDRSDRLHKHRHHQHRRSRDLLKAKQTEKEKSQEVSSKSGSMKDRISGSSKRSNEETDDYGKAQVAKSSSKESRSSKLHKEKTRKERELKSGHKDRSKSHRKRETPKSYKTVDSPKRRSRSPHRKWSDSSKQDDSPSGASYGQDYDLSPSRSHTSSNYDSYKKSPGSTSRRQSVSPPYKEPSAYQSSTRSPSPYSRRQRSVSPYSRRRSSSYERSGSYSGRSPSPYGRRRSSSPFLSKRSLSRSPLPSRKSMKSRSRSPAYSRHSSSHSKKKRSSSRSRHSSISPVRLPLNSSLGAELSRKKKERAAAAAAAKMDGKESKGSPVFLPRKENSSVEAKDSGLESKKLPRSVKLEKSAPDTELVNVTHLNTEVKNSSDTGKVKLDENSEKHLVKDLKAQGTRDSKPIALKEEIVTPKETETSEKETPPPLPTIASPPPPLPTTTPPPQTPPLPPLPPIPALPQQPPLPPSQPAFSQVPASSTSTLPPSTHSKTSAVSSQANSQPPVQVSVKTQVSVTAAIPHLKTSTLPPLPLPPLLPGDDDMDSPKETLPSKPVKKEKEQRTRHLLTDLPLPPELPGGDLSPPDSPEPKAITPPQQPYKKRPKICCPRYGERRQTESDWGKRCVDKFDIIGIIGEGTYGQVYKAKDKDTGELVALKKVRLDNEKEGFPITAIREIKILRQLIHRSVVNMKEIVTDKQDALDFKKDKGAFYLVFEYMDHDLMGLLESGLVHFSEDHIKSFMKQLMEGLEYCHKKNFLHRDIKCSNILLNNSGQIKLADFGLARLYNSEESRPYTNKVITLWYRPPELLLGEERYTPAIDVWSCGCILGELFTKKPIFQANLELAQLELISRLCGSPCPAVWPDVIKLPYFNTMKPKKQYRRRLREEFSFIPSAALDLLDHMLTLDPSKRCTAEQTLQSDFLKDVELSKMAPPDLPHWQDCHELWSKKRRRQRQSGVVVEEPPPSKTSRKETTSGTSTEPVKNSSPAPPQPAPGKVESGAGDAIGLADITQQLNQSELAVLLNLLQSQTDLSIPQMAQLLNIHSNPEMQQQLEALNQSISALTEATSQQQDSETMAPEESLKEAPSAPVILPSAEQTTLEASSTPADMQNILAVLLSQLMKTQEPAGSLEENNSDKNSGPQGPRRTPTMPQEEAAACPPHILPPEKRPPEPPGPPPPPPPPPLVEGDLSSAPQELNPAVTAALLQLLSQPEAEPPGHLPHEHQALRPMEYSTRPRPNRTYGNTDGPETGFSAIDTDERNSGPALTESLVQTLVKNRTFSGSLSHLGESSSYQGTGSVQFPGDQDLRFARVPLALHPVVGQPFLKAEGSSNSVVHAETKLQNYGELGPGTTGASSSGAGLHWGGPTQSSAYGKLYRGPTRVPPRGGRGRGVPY
Chain of CDK12/cyclinK(h) (O75909 whole entry partner): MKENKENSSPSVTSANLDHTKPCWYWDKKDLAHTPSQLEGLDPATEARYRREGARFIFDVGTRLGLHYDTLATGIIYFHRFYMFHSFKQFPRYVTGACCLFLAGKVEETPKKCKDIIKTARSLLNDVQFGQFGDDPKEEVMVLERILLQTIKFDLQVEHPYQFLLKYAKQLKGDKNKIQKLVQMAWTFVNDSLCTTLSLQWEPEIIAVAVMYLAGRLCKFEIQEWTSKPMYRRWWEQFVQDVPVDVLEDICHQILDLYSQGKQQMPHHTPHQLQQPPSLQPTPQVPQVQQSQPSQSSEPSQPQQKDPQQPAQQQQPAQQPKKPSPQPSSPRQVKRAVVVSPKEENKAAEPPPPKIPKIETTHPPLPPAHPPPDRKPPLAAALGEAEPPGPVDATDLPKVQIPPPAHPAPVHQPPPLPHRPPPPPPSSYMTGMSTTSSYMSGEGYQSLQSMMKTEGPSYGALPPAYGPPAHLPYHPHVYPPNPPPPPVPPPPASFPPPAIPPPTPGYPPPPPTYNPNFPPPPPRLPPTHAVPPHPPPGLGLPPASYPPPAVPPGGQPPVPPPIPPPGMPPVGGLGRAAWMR
T9 sequence (Q8IY84 whole entry): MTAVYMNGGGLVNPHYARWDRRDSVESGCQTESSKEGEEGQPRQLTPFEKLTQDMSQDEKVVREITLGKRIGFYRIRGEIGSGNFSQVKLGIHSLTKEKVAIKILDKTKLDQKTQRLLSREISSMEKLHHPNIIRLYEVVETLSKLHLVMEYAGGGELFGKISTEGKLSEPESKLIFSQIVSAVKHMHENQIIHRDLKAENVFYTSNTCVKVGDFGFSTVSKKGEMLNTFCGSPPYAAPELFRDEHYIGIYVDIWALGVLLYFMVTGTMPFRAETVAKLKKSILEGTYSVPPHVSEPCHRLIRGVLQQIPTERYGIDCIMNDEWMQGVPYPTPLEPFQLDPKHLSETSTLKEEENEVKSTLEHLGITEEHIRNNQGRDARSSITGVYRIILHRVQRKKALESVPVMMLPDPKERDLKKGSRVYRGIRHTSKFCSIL

C1=C(c2nc(-c3cnn(C4CCNCC4)c3)cn3cc(-c4ccccc4)nc23)CCOC1 [YL-939]
remaining activity at 10 µM (ALK(h)): 106% | remaining activity at 10 µM (ARK5(h)): 93% | remaining activity at 10 µM (ASK1(h)): 110% | remaining activity at 10 µM (ATM(h)): 86% | remaining activity at 10 µM (CDK12/cyclinK(h)): 99% | remaining activity at 10 µM (CK1γ3(h)): 102% | remaining activity at 10 µM (CK2α1(h)): 103% | remaining activity at 10 µM (FGFR3(h)): 83% | remaining activity at 10 µM (Fes(h)): 86% | remaining activity at 10 µM (IKKα(h)): 92% | remaining activity at 10 µM (MAK(h)): 74% | remaining activity at 10 µM (MAP4K3(h)): 79% | remaining activity at 10 µM (MAPK1(h)): 103% | remaining activity at 10 µM (MAPK2(h)): 88% | remaining activity at 10 µM (MOK(h)): 88% | remaining activity at 10 µM (Mer(h)): 78% | remaining activity at 10 µM (NIM1(h)): 85% | remaining activity at 10 µM (PRAK(h)): 144% | remaining activity at 10 µM (PhKγ1(h)): 85% | remaining activity at 10 µM (Pim-2(h)): 84% | remaining activity at 10 µM (Ret (V804L)(h)): 81% | remaining activity at 10 µM (SNRK(h)): 100% | remaining activity at 10 µM (Txk(h)): 73%
